# Columns and labels:
# Assay in all cases: relative viability (nuclei count vs DMSO), 5 days (fraction); higher = more cells survive
# [1] = compound: CN(C)C(=N)NC(=N)N [Metformin] + CC(=O)c1c(C)c2cnc(Nc3ccc(N4CCNCC4)cn3)nc2n(C2CCCC2)c1=O [Palbociclib] (partner 0.5 µM)
# In short: (§1)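 Lung cancer cell lines were seeded in 1536-well plates and dosed by pin tool the next day, with either a single drug or a fixed anchor-drug dose combined with five library-drug doses (not always all listed) spaced in √10 steps. Five days later, one step fixed the cells and stained their nuclei (final 0.05% Triton X-100, 1% formaldehyde, 1 ug/ml Hoechst), and nuclei were counted on 4× images. Relative viability is the nuclei count in treated wells divided by the count in vehicle wells, and each value is the median of duplicate plates.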
# [2] = compound: CN(C)C(=N)NC(=N)N [Metformin] + C[C@@H](Oc1cc(-c2cnn(C3CCNCC3)c2)cnc1N)c1c(Cl)ccc(F)c1Cl [Crizotinib] (partner 1 µM)
# In short: as §1
# [3] = compound: N#CC1(c2ccc(NC(=O)c3cccnc3NCc3ccncc3)cc2)CCCC1 [Apatinib] + CC(C)C[C@H](NC(=O)[C@H](Cc1ccccc1)NC(=O)c1cnccn1)B(O)O [Bortezomib] (partner 0.002 µM)
# In short: as §1
# [4] = compound: N#CC1(c2ccc(NC(=O)c3cccnc3NCc3ccncc3)cc2)CCCC1 [Apatinib] + O=C(CCCCCCC(=O)Nc1ccccc1)NO [Vorinostat] (partner 1 µM)
# In short: as §1
Cell Line,relative viability ([1]; first compound 31.62 µM),relative viability ([1]; first compound 100 µM),relative viability ([1]; first compound 316.23 µM),relative viability ([1]; first compound 1000 µM),relative viability ([2]; first compound 31.62 µM),relative viability ([2]; first compound 100 µM),relative viability ([2]; first compound 316.23 µM),relative viability ([2]; first compound 1000 µM),relative viability ([3]; first compound 0.253 µM),relative viability ([3]; first compound 0.8 µM),relative viability ([3]; first compound 2.53 µM),relative viability ([3]; first compound 8 µM),relative viability ([4]; first compound 0.253 µM),relative viability ([4]; first compound 0.8 µM),relative viability ([4]; first compound 2.53 µM),relative viability ([4]; first compound 8 µM),relative viability ([1]; first compound 10 µM),relative viability ([2]; first compound 10 µM),relative viability ([3]; first compound 0.08 µM),relative viability ([4]; first compound 0.08 µM)
ABC-1,0.9,0.62,0.592,0.279,1.3,0.869,0.447,0.29,0.333,0.311,0.335,0.316,1.2,1.07,1.04,1.22,,,,
PC-14,0.586,0.547,0.461,0.539,0.912,0.896,0.769,0.894,1.01,0.79,0.776,0.834,0.755,0.639,0.606,0.547,0.533,0.889,0.984,0.821
LOU-NH91,0.523,0.441,0.518,0.517,0.806,0.766,0.802,0.847,0.492,0.543,0.443,0.476,0.97,0.82,0.816,0.82,0.524,0.747,0.466,0.974
LU99A,0.352,0.347,0.35,0.31,0.52,0.443,0.503,0.481,1.22,1.2,0.943,0.976,0.589,0.467,0.43,0.354,0.387,0.47,1.21,0.514
NCI-H1355,0.36,0.382,0.358,0.383,1.06,1.03,0.986,1.11,1.16,1.16,1.14,1.08,0.703,0.616,0.515,0.569,0.341,1.01,1.2,0.677
NCI-H2023,0.341,0.3,0.285,0.237,0.767,0.706,,0.512,1.09,1.02,0.858,0.856,0.673,0.811,0.58,0.483,0.321,,1.02,0.774
NCI-H2347,0.453,0.404,0.382,0.408,0.763,0.85,0.566,0.675,1.06,1.13,,0.891,0.569,0.619,0.542,0.557,0.443,0.545,0.847,0.655
LC-2-ad,0.341,0.313,0.27,0.347,0.357,0.338,0.415,0.378,1.15,1.22,0.946,0.832,0.753,0.721,0.633,0.665,,0.369,0.937,0.735
NCI-H661,0.391,0.371,0.37,0.365,0.848,0.843,0.885,0.8,0.855,0.685,0.764,0.584,0.75,0.739,0.722,0.716,0.382,,0.935,0.814
NCI-H1666,0.616,0.642,0.681,0.714,1.03,1.15,1.09,1.2,1.02,0.824,0.785,0.825,1.03,1.05,0.976,0.915,0.695,1.26,0.829,1.03
SK-LU-1,0.388,0.365,0.358,0.367,0.772,0.884,0.817,0.824,1.26,0.968,1.12,1,0.778,0.776,0.722,0.554,0.358,0.787,0.932,0.905
HOP-62,0.405,0.358,0.387,0.374,0.995,1.11,0.765,0.917,,0.62,0.672,0.738,0.679,0.567,0.476,0.323,0.372,0.917,1.06,0.613
CAL-12T,0.53,0.488,0.384,0.423,0.64,0.552,0.611,0.521,0.908,1.06,0.819,1.09,1.02,0.741,0.794,0.765,0.579,,1.11,0.941
BEN,0.529,0.523,0.436,0.456,1.24,1.15,1.01,1.13,0.868,0.876,0.458,0.871,0.62,0.609,0.589,0.536,0.503,1.16,0.688,0.584
HCC-366,0.376,0.309,0.31,0.334,0.502,0.532,0.398,0.709,1.1,0.948,0.926,1.09,0.386,0.329,0.205,0.193,0.342,0.608,1.16,0.437
EMC-BAC-2,0.547,0.502,0.496,0.423,0.8,0.828,0.702,0.805,0.987,1.07,0.843,0.918,0.51,0.432,0.29,0.362,0.499,0.731,1.08,
COR-L 105,0.44,0.464,0.433,0.441,0.841,0.821,0.745,0.697,0.897,0.901,0.605,0.658,0.795,0.872,0.782,0.805,0.419,0.71,1.12,1.09

Cell Line,relative viability ([1]; first compound 31.62 µM),relative viability ([1]; first compound 100 µM),relative viability ([1]; first compound 316.23 µM),relative viability ([1]; first compound 1000 µM),relative viability ([2]; first compound 31.62 µM),relative viability ([2]; first compound 100 µM),relative viability ([2]; first compound 316.23 µM),relative viability ([2]; first compound 1000 µM),relative viability ([3]; first compound 0.253 µM),relative viability ([3]; first compound 0.8 µM),relative viability ([3]; first compound 2.53 µM),relative viability ([3]; first compound 8 µM),relative viability ([4]; first compound 0.253 µM),relative viability ([4]; first compound 0.8 µM),relative viability ([4]; first compound 2.53 µM),relative viability ([4]; first compound 8 µM),relative viability ([1]; first compound 10 µM),relative viability ([2]; first compound 10 µM),relative viability ([3]; first compound 0.08 µM),relative viability ([4]; first compound 0.08 µM)
A-427,0.546,0.516,0.53,0.389,1.17,0.84,0.926,0.896,0.955,1.01,0.886,0.945,0.852,0.855,0.866,0.853,0.501,0.802,1.08,0.861
LCLC-103H,0.561,0.532,0.437,0.495,1.19,1.11,1.1,1.09,1.03,0.998,0.992,1.09,0.773,0.772,0.683,0.709,0.465,1.13,1.16,0.812
NCI-H520,0.269,0.277,0.22,0.269,0.75,0.803,0.752,0.606,0.492,0.451,0.585,0.447,0.736,0.708,0.672,0.452,0.271,0.804,0.83,0.77
NCI-H3122,0.188,0.228,0.191,0.184,0.213,0.241,0.255,0.224,1.05,1.05,1.04,0.958,0.968,1.07,0.734,0.895,0.174,0.225,1.04,0.995
UMC-11,0.349,0.333,0.311,0.341,0.742,0.673,0.626,0.598,0.728,0.722,0.623,0.67,0.397,0.366,0.349,0.341,0.336,0.725,1.01,0.403
PC-3 [JPC-3],0.466,,0.46,0.503,0.893,0.951,0.876,0.901,0.773,0.713,0.716,0.813,0.756,0.733,0.533,0.799,0.444,0.861,0.832,
EKVX,0.312,0.355,0.384,0.357,0.896,0.958,0.716,0.895,1.21,0.967,0.98,1.01,0.752,0.713,0.589,0.57,,0.657,0.941,0.816
HCC-827,0.501,0.481,0.469,0.615,0.87,0.903,0.849,0.888,0.907,1.07,1.05,1.09,0.777,0.817,0.654,0.855,0.452,,0.977,0.859
HCC-44,0.917,0.959,0.93,0.887,0.788,0.785,0.749,0.776,0.951,0.894,0.753,0.856,1.07,1.08,1.01,0.934,,0.824,1.01,1.07
NCI-H838,0.278,0.261,0.271,0.298,0.814,0.875,0.864,0.854,0.963,0.57,0.887,0.712,0.784,0.702,0.652,0.722,0.295,0.815,0.931,0.778
NCI-H2126,0.349,0.307,0.322,0.328,0.946,0.957,0.908,0.956,1.01,1.08,1.06,1.06,0.717,0.671,0.768,0.755,0.399,0.863,1.11,0.86
COR-L23,0.289,0.218,0.208,0.249,0.461,0.483,0.574,0.639,1.03,0.971,0.793,0.898,0.461,0.333,0.415,0.427,0.237,0.564,1.07,0.516
NCI-H727,0.78,0.818,,0.618,0.886,1.04,0.811,0.993,0.706,0.62,0.599,0.716,,1.23,1.08,0.999,0.672,0.886,0.684,1.18
LXF-289,0.557,0.568,0.535,0.564,0.759,0.812,0.776,0.794,0.983,0.984,0.936,0.96,0.746,0.765,0.637,0.671,0.516,0.764,1.02,0.813
HCC-15,0.807,0.716,0.562,0.831,0.81,0.889,0.8,0.833,1.03,0.972,0.88,0.992,0.876,0.871,0.887,0.706,0.726,0.818,1.09,0.9
NCI-H2085,0.447,0.469,0.435,0.453,0.694,0.947,0.721,0.879,0.831,1.06,1.13,1.04,0.777,0.711,0.73,0.742,0.475,0.952,1.1,0.77

# — the supplement of paper PMC10307832
